Results: publication PMC8472597, “Neurosteroids: Structure-Uptake Relationships and Computational Modeling of Organic Anion Transporting Polypeptides (OATP)1A2” (Molecules, 2021)
Values joined by “and” are separate entries in the source; they are usually repeats but may differ in a detail not shown here. Equal values may be shown once. Read-outs that look alike come from different tables or passages of the source.

Key:
[1] = tested on: efflux transporters (P-gp, BCRP, MRPs); assay: Cellular uptake into MCF-7 cells in the presence of efflux inhibitors (elacridar, MK-571); settings: 25 µM compound; for Efflux transporter substrate status: 50 µM elacridar and MK-571, pH 7.4, MCF-7 cells
Description: The competitive uptake of 25 µM neurosteroids (1–11) in the presence of efflux inhibitors, 50 µM elacridar (P-gp and BCRP), and 50 µM MK-571 (MRPs) at pH 7.4 was carried out as described above, and the concentrations of studied compounds were analyzed with HPLC methods (below), calculated according to the standard curve, and normalized with protein concentration measured to each 24-well plate.
Concentrations of neurosteroids (1–11) were determined by HPLC. The apparatus was comprised of an Agilent 1100 binary pump (Agilent Technologies Inc., Wilmington, DE, USA), 1100 micro vacuum degasser, HP 1050 Auto-sampler, HP 1050 variable wavelength detector, operating at 225 nm. The chromatographic separations were achieved on a Supelco Supelcosil LC-Si analytical column (4.6 mm x 250 mm, 5 ml) (Supelco Inc., Bellefonte, PA, USA) by using isocratic elution of water containing 0.1% phosphoric acid and ACN with ratio of 30:70. The retention times of the compounds were ca. 4.3–4.4 min at the flow rate of 1.0 mL/min at room temperature. […] These HPLC methods were accurate (100 ± 10% of nominal concentration), precise (RSD% <10%), and selective (no interfering peaks) over the range 0.1–2 μM.
All data analyses, including Michaelis-Menten and Eadie-Hofstee analyses, were performed using GraphPad Prism v. […] Statistical differences between groups were tested using one-way ANOVA, followed by a two-tailed Tukey’s multiple comparison test and presented as mean ± SD, with statistically significant difference denoted by * p < 0.05, ** p < 0.01, *** p < 0.001.

[2] = tested on: MCF-7 cells; assay: Concentration-dependent cellular uptake of neurosteroids into MCF-7 cells, Michaelis-Menten / Eadie-Hofstee analysis; assay type: cell-based, human; settings: 5–200 µM; for Transport Mechanism Type 1 Vmax / Km / Transport Mechanism Type 2 Vmax: 30 min, 37 °C, Eadie-Hofstee plot analysis
Description: MCF-7 human breast adenocarcinoma cells (HTB-22; RRID: CVCL_0031) were purchased from the American Type Culture Collection (ATCC, Manassas, VA, USA). The cells were cultured in standard conditions (37 °C, 5% CO2) using Dulbecco’s modified Eagle medium (DMEM) supplemented with L-glutamine (2 mM), heat-inactivated fetal bovine serum (10%), penicillin (50 U/mL), and streptomycin (50 μg/mL). Once the cells reached 80% confluence in culture bottles (75 cm^2), the cells were washed twice with DPBS solution and harvested by trypsinization. All the following experiments were carried out with passage number 9–22.
Concentrations of neurosteroids (1–11) were determined by HPLC.
5.03 software (GraphPad Software, San Diego, CA, USA).

[3] = tested on: MCF-7 cells; settings: human, 30 min, 25 µM
Description: For the cellular uptake experiments, MCF-7 cells were seeded at the density of 1 × 10^5 cells/well onto 24-well plates a day before the experiments. Cellular uptake of neurosteroids (1–11) dissolved in DMSO and diluted with HBSS or MES buffer containing 5% 2-hydroxypropyl-β-cyclodextrin (HP-β-CD) was studied by incubating the cells with the pre-warmed compound solutions (250 μL) at the concentrations of 1–200 μM, at pH 7.4 (HBSS buffer), or in parallel at 5.0 (MES buffer), at 37 °C for 30 min (uptake was linear with all compounds up to 30 min). Subsequently, the cells were washed three times with ice-cold buffer and lysed with 250 μL of NaOH (0.1 M) for 60 min. The lysates were diluted with acetonitrile (ACN) with a ratio of 1:3 and centrifuged at 10,000× g for 10 min. The samples were analyzed by high-performance liquid chromatography (HPLC) methods described below. The concentrations of each compound were calculated from the standard curve and normalized to protein concentration in each 24-plate that was determined as a mean of three samples by Bio-Rad Protein Assay, based on the Bradford dye-binding method, using BSA as a standard protein and measuring the absorbance (595 nm) by multiplate reader (EnVision, Perkin Elmer, Inc., Waltham, MA, USA).
Concentrations of neurosteroids (1–11) were determined by HPLC. […]

[4] = tested on: OATP1A2; design: method as in PMID 31254566; Vmax: unit not given here; settings: reference substrate; cited from earlier work
[5] = read-out: Transport Mechanism Type 1 Km
[6] = read-out: Transport Mechanism Type 2 Km

Row | SMILES | Transport Mechanism Type 1 Vmax [2] | Km [2, 5] | Transport Mechanism Type 2 Vmax [2] | Km [2, 6] | other results
1 | CC(=O)[C@H]1CCC2C3CC[C@@H]4C[C@H](O)CC[C@]4(C)C3CC[C@@]21C (stereo partly drawn) [Compound 1, 3α5β-Pregnanolone, reference compound] | 26.3 ± 4.2 pmol/mg/min | 55.4 µM |  |  | Efflux transporter substrate status [1]: substrates for all studied efflux transporters
2 | CC(=O)[C@H]1CCC2C3CC[C@@H]4C[C@H](OC(=O)[C@@H](N)CCC(=O)O)CC[C@]4(C)C3CC[C@@]21C (some centres unmarked) [Compound 2] |  |  |  |  | Efflux transporter substrate status [1]: efflux phenomenon can be abolished; Cellular uptake in the presence of efflux inhibitors elacridar or MK-571 ([1]; 50 µM inhibitor, pH 7.4, MCF-7 cells): not affected; Uptake profile over concentration (saturation of transporter) [2]: did not reach the saturation stage
3 | C[C@@]12CCCC1C1CC[C@@H]3C[C@H](OC(=O)[C@@H](N)CCC(=O)O)CC[C@]3(C)C1CC2 (some centres unmarked) [Compound 3] | 3.0 pmol/mg/min and 3.0 ± 0.4 pmol/mg/min | 7.7 µM | 8.2 pmol/mg/min and 8.2 ± 0.1 pmol/mg/min | 25.2 µM | 
4 | C[C@H]1CCC2C3CC[C@@H]4C[C@H](NC(=O)CC(=O)O)CC[C@]4(C)C3CC[C@@]21C (some centres unmarked) [Compound 4] | 13.9 ± 6.7 pmol/mg/min | ~233 µM |  |  | 
5 | CC(C)(C)OC(=O)N[C@@H](CO)C(=O)N[C@@H]1CC[C@]2(C)C3CC[C@]4(C)CCCC4C3CC[C@@H]2C1 (some centres unmarked) [Compound 5] | 5.3 pmol/mg/min and 5.3 ± 0.4 pmol/mg/min | 76.4 µM | 34.7 ± 7.7 pmol/mg/min | ~960 µM | 
6 | C[C@@]12CCCC1C1CC[C@@H]3C[C@H](NC(=O)CCC(=O)O)CC[C@]3(C)C1CC2 (some centres unmarked) [Compound 6] | 3.9 ± 0.5 pmol/mg/min |  | 10.2 ± 0.1 pmol/mg/min |  | 
7 | CC(C)(C)OC(=O)N[C@@H](CC(=O)O)C(=O)N[C@@H]1CC[C@]2(C)C3CC[C@]4(C)CCCC4C3CC[C@@H]2C1 (some centres unmarked) [Compound 7] | 3.0 ± 0.1 pmol/mg/min |  |  |  | 
8 | C[C@@]12CCCC1C1CC[C@@H]3C[C@H](NC(=O)[C@@H](N)CC(=O)O)CC[C@]3(C)C1CC2 (some centres unmarked) [Compound 8] | 8.0 ± 2.1 pmol/mg/min | 10.9 µM | 28.2 pmol/mg/min and 28.2 ± 0.1 pmol/mg/min | 42.8 µM | Cellular uptake at pH 5.5 compared to pH 7.4 [3]: increased the uptake of all neurosteroids, except of compound 8
9 | C[C@@]12CCCC1C1CC[C@@H]3C[C@H](NC(=O)CCCC(=O)O)CC[C@]3(C)C1CC2 (some centres unmarked) [Compound 9] | 5.5 ± 0.6 pmol/mg/min | 9.2 µM | 26.5 ± 3.0 pmol/mg/min | 67.8 µM | 
10 | CC(C)(C)OC(=O)N[C@@H](CCC(=O)O)C(=O)N[C@@H]1CC[C@]2(C)C3CC[C@]4(C)CCCC4C3CC[C@@H]2C1 (some centres unmarked) [Compound 10] |  | 23 µM |  | 282 µM | 
11 | C[C@@]12CCCC1C1CC[C@@H]3C[C@H](NC(=O)[C@@H](N)CCC(=O)O)CC[C@]3(C)C1CC2 (some centres unmarked) [Compound 11] | 17.2 ± 2.1 pmol/mg/min | 24.2 µM |  |  | 
12 | C[C@]12CC[C@@H]3c4ccc(OS(=O)(=O)O)cc4CC[C@H]3[C@@H]1CCC2=O [Compound E3S, Estrone-3-Sulfate] |  |  |  |  | Km [4]: 6.5 µM; Vmax [4]: 66 ± 8.5; efficacy [4]: 10.21
